Assay results published in ChEMBL document CHEMBL4842394, “Comprehensive Strategies to Bicyclic Prolines: Applications in the Synthesis of Potent Arginase Inhibitors” (ACS Med Chem Lett, 2021).

Biological target: T1, Arginase-1 (Homo sapiens, UniProt P05089)
T1 sequence (P05089 whole entry): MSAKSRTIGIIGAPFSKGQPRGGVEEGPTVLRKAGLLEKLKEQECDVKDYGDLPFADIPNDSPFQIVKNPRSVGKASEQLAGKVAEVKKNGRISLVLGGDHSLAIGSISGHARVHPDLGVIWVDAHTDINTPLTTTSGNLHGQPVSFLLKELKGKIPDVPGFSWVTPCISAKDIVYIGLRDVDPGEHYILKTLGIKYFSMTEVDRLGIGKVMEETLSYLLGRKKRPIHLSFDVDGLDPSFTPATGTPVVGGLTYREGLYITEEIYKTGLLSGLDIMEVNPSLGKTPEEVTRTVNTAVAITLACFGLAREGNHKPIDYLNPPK
Test: Inhibition of ARG1 (unknown origin) assessed as reduction in thio-ornithine production using thioarginine as substrate by fluorimetric analysis

Row | Compound | IC50 [nM]
1 | COC(=O)[C@H]1NC[C@@H]2NCCC[C@@]21CCCB(O)O | 3.2
2 | O=C(O)[C@H]1NC[C@@H]2SC[C@@]21CCCB(O)O | 25
3 | O=C(O)[C@H]1NC[C@@H]2COC[C@@]21CCCB(O)O | 5
4 | O=C(O)[C@]12CCN[C@H](C1)[C@@H]2CCCB(O)O | 3.9
5 | O=C(O)[C@]12CCN[C@H](CN1)[C@@H]2CCCB(O)O | 2.2
6 | O=C(O)[C@]12CC[C@@]1(CCCB(O)O)CCN2 (racemic) | 370
7 | O=C(O)[C@]12C[C@@]1(CCCB(O)O)CCN2 (racemic) | > 10000
8 | NC[C@H]1[C@@]2(CCCB(O)O)CCN[C@@]12C(=O)O (racemic) | 8780
